Reference: patent publication US4939177A, “Use of avarol for the control of AIDS and ARC” (Merz + Co. GmbH & Co., priority 1986, dated 1990)

Experiments:
herpes simplex virus = details: in vitro, cultures of herpes simplex virus; cited from earlier work
[1] = test system: mouse leukemia cells L5178-Y; details: in vitro and in vivo; cited from earlier work
[2] = test system: L5178y mouse lymphoma cells; test: L5178y cell growth; assay type: cell-based; details: Mus musculus, L5178Y, absence of Avarol
Experimental: mouse lymphoma cells were grown in roller tube cultures in Eagle's minimum essential medium, supplemented with 10% horse serum (Muller et al., Cancer Res. 39: 1102-1107; 1979 and Muller et al. Cancer Res. 45: 4822-4826; 1985). […] The cell growth was determined by cell count with a computer supported cell-counter (128-channel counter; Cytocomp, system Michaelis: BIOTRON-Medizinelektronik, Mainz; West Germany). The ED50 (±SD) was estimated by logit regression (L. Sachs, […], Springer-Verlag, Berlin 1984). The mathematical evaluation of the fractional inhibitory concentration indices (FIC indices) of Avarol/Avarone-DDC combinations was performed according to published equations and experimental conditions (Muller et al., Cancer Lett. 1: 127-132; 1976; and Phillips et al., Antimicrob. Agents Chemother. 9: 736-740, 1976). […] In this set of experiments, […] cells were incubated with Avarol in the absence or presence of the established SODase inhibitor DDC.

[3] = test system: DTH to oxazolone in NMRI mice; test: Contact allergy to oxazolone; assay type: in vivo, mouse; details: 30 mg/kg per os
Experimental: Allergic contact dermatitis against oxazolone was produced according to the method of Asherson and Ptak (Immunol. 15: 405-416; 1968) as well as those of Bure and Degrand (Agents and Actions 9: 534; 1979). Male NMRI mice (20-22 g; 10/group) were sensitized with 100 μl of a 2% oxazolone in acetone solution onto the shaved abdomen (day 0). Animals were treated with avarol (i.p.) daily from day -1 to +2 or from day +6 to +8; control group was treated with deoxymethasone (Casella-Hoechst) as a standard per os at a daily dose of 30 mg/kg for the same period of time as for avarol. Seven days after sensitization 10 μl of a 3% oxazolane (this concentration was previously found to give more reproducible results than the lower 2% concentration) solution were topically applied onto the inner side of one ear, whereas the other ear received only acetone. […] Treated groups were compared with controls using the U-test.

CC1=CCC[C@H]2[C@](C)(CC3=CC(=O)C=CC3=O)[C@@H](C)CC[C@]12C [Avarone]
virostatic action (herpes simplex virus): certain virostatic action in vitro
antileukemic action [1]: antileukemic action

CCN(CC)C(=S)S [DDC, diethyldithiocarbamate, reference compound]
inhibition at 1.46 µM ([2]; DDC 1.46 μM): 26%
inhibition at 1.71 µM ([2]; DDC 1.71 μM): 38%

C[C@@H]1C[C@H]2[C@@H]3CCC4=CC(=O)C=C[C@]4(C)[C@@]3(F)[C@@H](O)C[C@]2(C)[C@H]1C(=O)CO [Deoxymethasone]
influence on DTH reaction to oxazolone, in words ([3]; both schedules): significant immunosuppressive influence
24 hours increase in ear thickness ([3]; day +6 to +8, control 18.5±3.7): 10.9 ± 6.1 mg
24 hours increase in ear thickness ([3]; day -1 to +2, control 22.3±5.6): 10.2 ± 6.0 mg
